Source: DBAASP
Values after ≈ are worked out from the molar mass of the structure shown. Values belong to the compound of their own block, whether it stands above or below them.

Key:
Assay in all cases: ≥ marks a high value that may be exact or a test limit, other limits are often not marked, values filed in µg/mL are converted to µM
[1] = system: Candida albicans ATCC 2002
[2] = system: Psychrobacter faecalis X29
[3] = system: Staphylococcus aureus ATCC 2592
[4] = system: Staphylococcus carnosus KHS
Serratia rubidaea X01 = system: Serratia rubidaea X01
[5] = system: Bacillus licheniformis X39
[6] = system: Rhodococcus rhodochrous X15
Candida albicans 820 = system: Candida albicans 820
Escherichia coli ML-35 = system: Escherichia coli ML-35
[7] = system: Listeria monocytogenes EGD
[8] = system: Pseudomonas aeruginosa PAO1
[9] = system: Mannheimia haemolytica Serovar 6
[10] = system: Salmonella enterica subsp. arizonae
[11] = system: Mannheimia haemolytica Serovar 1
Bibersteinia trehalosi = system: Bibersteinia trehalosi
[12] = system: Mannheimia haemolytica Serovar 2
Staphylococcus aureus = system: Staphylococcus aureus
Pasteurella multocida = system: Pasteurella multocida
Klebsiella pneumoniae = system: Klebsiella pneumoniae
Aspergillus fumigatus = system: Aspergillus fumigatus
[13] = system: Corynebacterium pseudotuberculosis ATCC 19410
[14] = system: Pseudomonas aeruginosa 919
[15] = system: Enterococcus faecalis ATCC 29212
[16] = system: Staphylococcus epidermidis
[17] = system: Pseudomonas aeruginosa 253
[18] = system: Pseudomonas aeruginosa H103
Candida albicans = system: Candida albicans
[19] = system: Salmonella enterica serovar Typhimurium
Escherichia coli UB1005 = system: Escherichia coli UB1005
[20] = system: Pseudomonas aeruginosa 910
[21] = system: Staphylococcus aureus ATCC 25923
[22] = system: Staphylococcus aureus 30371
[23] = system: Pseudomonas aeruginosa MR2123
[24] = system: Enterococcus faecium 94-132
[25] = system: Salmonella enterica subsp. enterica serovar Typhimurium ATCC 14028s
[26] = system: Staphylococcus aureus 28841
[27] = system: Staphylococcus aureus 930918-3
Escherichia coli ML-35p = system: Escherichia coli ML-35p
[28] = system: Pseudomonas aeruginosa MR3007
[29] = system: Enterococcus faecalis CDC 21
Enterococcus faecium = system: Enterococcus faecium
[30] = system: Pseudomonas aeruginosa SBI-N
Escherichia coli BAS 849 = system: Escherichia coli BAS 849
Escherichia coli mcr106 = system: Escherichia coli mcr106
[31] = system: Salmonella enterica serovar typhimurium MS7953s

- MIC [8]: 5.2 µM (≈ 10 µg/mL)
- MIC [10]: 10.4 µM (≈ 20 µg/mL)
- MIC (Bibersteinia trehalosi): 10.4 µM (≈ 20 µg/mL)
- MIC (Staphylococcus aureus): > 10.4 µM
- MIC (Pasteurella multocida): 10.4 µM (≈ 20 µg/mL)
- MIC (Klebsiella pneumoniae): > 10.4 µM
- MIC (Aspergillus fumigatus): 20.8 µM (≈ 40 µg/mL)
- MIC [13]: 10.4 µM (≈ 20 µg/mL)
SMILES: CC[C@H](C)[C@H](NC(=O)[C@H](CCCCN)NC(=O)[C@H](CCCN=C(N)N)NC(=O)CNC(=O)[C@H](CC(C)C)NC(=O)[C@H](C)NC(=O)[C@H](CCCN=C(N)N)NC(=O)[C@H](CC(C)C)NC(=O)CNC(=O)[C@@H](N)CCCN=C(N)N)C(=O)N[C@@H](C)C(=O)N[C@@H](Cc1cnc[nH]1)C(=O)NCC(=O)N[C@H](C(=O)N[C@@H](CCCCN)C(=O)N[C@@H](C)C(=O)N[C@@H](Cc1ccc(O)cc1)C(=O)NCC(=O)O)C(C)C [RGLRALGRKIAHGVKAYG]
- MIC [9]: 10.4 µM (≈ 20 µg/mL)
- MIC [11]: 5.2 µM (≈ 10 µg/mL)
- MIC [12]: 4.32 µM (≈ 8.3 µg/mL)

- MIC [22]: 2.2 µM (≈ 5.8 µg/mL)
- MIC [23]: 0.266 µM (≈ 0.7 µg/mL)
- MIC [24]: 0.114 µM (≈ 0.3 µg/mL)
- MIC [25]: 0.57 µM (≈ 1.5 µg/mL)
- MIC [26]: 0.95 µM (≈ 2.5 µg/mL)
- MIC [27]: 1.48 µM (≈ 3.9 µg/mL)
- MIC (Escherichia coli ML-35p): 0.494 µM (≈ 1.3 µg/mL)
- MIC [28]: 0.342 µM (≈ 0.9 µg/mL)
- MIC [29]: 0.988 µM (≈ 2.6 µg/mL)
- MIC (Enterococcus faecium): 0.19 µM (≈ 0.5 µg/mL)
- MIC [30]: 0.342 µM (≈ 0.9 µg/mL)
- MIC (Escherichia coli BAS 849): 0.266 µM (≈ 0.7 µg/mL)
- MIC (Klebsiella pneumoniae): 1.06 µM (≈ 2.8 µg/mL)
- MIC (Escherichia coli mcr106): 0.266 µM (≈ 0.7 µg/mL)
- MIC [31]: 0.494 µM (≈ 1.3 µg/mL)
- MIC [7]: 0.152 µM (≈ 0.4 µg/mL)
SMILES: CC[C@H](C)[C@H](NC(=O)[C@H](CCCCN)NC(=O)CNC(=O)[C@H](CC(C)C)NC(=O)[C@H](Cc1ccccc1)NC(=O)[C@H](CCC(N)=O)NC(=O)[C@H](Cc1ccccc1)NC(=O)[C@@H](N)C(C)C)C(=O)N[C@H](C(=O)N[C@@H](CCCCN)C(=O)N[C@@H](CCCCN)C(=O)N[C@H](C(=O)NCC(=O)N[C@@H](CC(N)=O)C(=O)N[C@@H](Cc1ccccc1)C(=O)N[C@H](C(=O)N[C@@H](CCCCN)C(=O)NCC(=O)N[C@@H](Cc1ccccc1)C(=O)N[C@@H](CO)C(=O)N[C@@H](CCCCN)C(=O)N[C@H](C(=O)N[C@@H](Cc1ccccc1)C(=O)O)C(C)C)C(C)C)C(C)C)[C@@H](C)CC [VFQFLGKIIKKVGNFVKGFSKVF]

More lines, now with the values behind:

SMILES: CC[C@H](C)[C@H](NC(=O)[C@H](CCC(=O)O)NC(=O)[C@H](CCCCN)NC(=O)[C@H](C)NC(=O)[C@H](C)NC(=O)[C@@H](NC(=O)[C@H](CCCCN)NC(=O)CNC(=O)[C@H](Cc1ccccc1)NC(=O)[C@H](CC(=O)O)NC(=O)[C@H](CCCCN)NC(=O)[C@H](CC(C)C)NC(=O)[C@@H](NC(=O)[C@H](CO)NC(=O)[C@H](CCSC)NC(=O)[C@H](CC(C)C)NC(=O)CN)[C@@H](C)O)[C@@H](C)O)C(=O)N[C@@H](C)C(=O)N[C@@H](CCC(N)=O)C(=O)N[C@@H](CO)C(=O)N[C@@H](CC(C)C)C(=O)N[C@@H](CC(C)C)C(=O)N[C@@H](CO)C(=O)N[C@H](C(=O)N[C@@H](C)C(=O)N[C@@H](CO)C(=O)N[C@H]1CSSC[C@@H](C(=O)O)NC(=O)[C@H]([C@@H](C)O)NC(=O)[C@H](CCCCN)NC(=O)[C@H](C)NC(=O)[C@H](CC(C)C)NC(=O)[C@H](CCCCN)NC1=O)[C@@H](C)O [GLMSTLKDFGKTAAKEIAQSLLSTASCKLAKTC]
- MIC [1]: ≥ 58.5 µM
- MIC [2]: 1.84 µM (≈ 6.3 µg/mL)
- MIC [3]: 3.66 µM (≈ 12.5 µg/mL)
- MIC [4]: 1.84 µM (≈ 6.3 µg/mL)
- MIC (Serratia rubidaea X01): 29.3 µM (≈ 99.9 µg/mL)
- MIC [5]: 14.6 µM (≈ 50 µg/mL)
- MIC [6]: 0.468 µM (≈ 1.6 µg/mL)

SMILES: CC[C@H](C)[C@@H]1NC(=O)[C@@H]2CSSC[C@H](NC(=O)[C@H](Cc3ccc(O)cc3)NC(=O)[C@@H](NC(=O)[C@H](CC(C)C)NC(=O)[C@H](CCCNC(=N)N)NC(=O)CNC(=O)CNC(=O)[C@@H](N)CCCNC(=N)N)CSSC[C@@H](C(=O)N[C@H](C(N)=O)C(C)C)NC1=O)C(=O)N[C@@H](CCCNC(=N)N)C(=O)N[C@@H](CCCNC(=N)N)C(=O)N[C@@H](CCCNC(=N)N)C(=O)N[C@@H](Cc1ccccc1)C(=O)N2 [RGGRLCYCRRRFCICV]
- MIC (Candida albicans 820): 12.7 µM (≈ 24.9 µg/mL)
- MIC (Escherichia coli ML-35): 12.7 µM (≈ 24.9 µg/mL)
- MIC [7]: 12.7 µM (≈ 24.9 µg/mL)

SMILES: CC[C@H](C)[C@H](NC(=O)[C@H](CCCN=C(N)N)NC(=O)[C@H](C)NC(=O)[C@H](CC(C)C)NC(=O)[C@@H](N)CCCN=C(N)N)C(=O)N[C@H](C(=O)N[C@H](C(=O)N[C@H](C(=O)N[C@@H](CCCN=C(N)N)C(=O)N[C@H](C(=O)N[C@@H](CCCN=C(N)N)C(=O)N[C@@H](CCCN=C(N)N)C(N)=O)C(C)C)[C@@H](C)CC)C(C)C)C(C)C [RLARIVVIRVRR]
- MIC [14]: ≥ 32 µM
- MIC [8]: 16 µM (≈ 24.1 µg/mL)
- MIC [15]: 5.31 µM (≈ 8 µg/mL)
- MIC [16]: 1.33 µM (≈ 2 µg/mL)
- MIC [17]: ≥ 64 µM
- MIC [18]: 10.6 µM (≈ 16 µg/mL)
- MIC (Candida albicans): 5.31 µM (≈ 8 µg/mL)
- MIC [19]: 5.31 µM (≈ 8 µg/mL)
- MIC (Escherichia coli UB1005): 5.31 µM (≈ 8 µg/mL)
- MIC [20]: ≥ 64 µM
- MIC [21]: 5.31 µM (≈ 8 µg/mL)
